Laboratory results as given in patent US9790229B2, “Bruton's tyrosine kinase inhibitors” (priority 2009, dated 2017).
Where two headings read alike, the source gives them in different places.

Target: BTK (Homo sapiens (Human), UniProt Q06187)
Assay: In vitro BTK kinase assay: BTK-POLYGAT-LS ASSAY
[1] = read-out: IC50 (10 uM ATP), 10 uM ATP, in vitro Btk kinase assay, Example 41

Sequence of BTK (Q06187 whole entry): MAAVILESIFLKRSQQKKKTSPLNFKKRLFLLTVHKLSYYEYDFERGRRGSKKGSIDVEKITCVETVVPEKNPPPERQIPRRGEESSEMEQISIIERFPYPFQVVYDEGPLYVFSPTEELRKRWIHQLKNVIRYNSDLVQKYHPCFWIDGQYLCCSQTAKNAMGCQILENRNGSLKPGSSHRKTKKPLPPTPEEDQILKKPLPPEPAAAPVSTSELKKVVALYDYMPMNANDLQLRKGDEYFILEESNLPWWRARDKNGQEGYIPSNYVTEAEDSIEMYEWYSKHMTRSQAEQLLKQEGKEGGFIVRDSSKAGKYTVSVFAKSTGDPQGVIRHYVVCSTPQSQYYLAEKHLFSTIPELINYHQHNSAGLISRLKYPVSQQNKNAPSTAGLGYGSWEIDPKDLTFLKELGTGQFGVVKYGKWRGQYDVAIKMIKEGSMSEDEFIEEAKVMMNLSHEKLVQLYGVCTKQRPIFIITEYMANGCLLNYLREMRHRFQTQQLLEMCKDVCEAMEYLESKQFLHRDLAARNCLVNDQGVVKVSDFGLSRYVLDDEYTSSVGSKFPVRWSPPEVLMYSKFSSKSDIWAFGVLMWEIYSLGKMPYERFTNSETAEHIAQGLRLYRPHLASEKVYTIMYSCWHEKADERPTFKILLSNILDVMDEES

Row | Structure (SMILES) | IC50 [1] | IC50
1 | O=C(NCC1CCOCC1)Nc1cccc(C2CCCN(c3ncnc4[nH]ccc34)C2)c1 (stereo not shown) [compound 223] | > 10 µM | 
2 | O=C(Nc1cccc(C2CCCN(c3ncnc4[nH]ccc34)C2)c1)Nc1cnccc1N1CCCC1 (stereo not shown) [compound 224] | > 10 µM | 
3 | CN1CCCC(CNC(=O)Nc2cccc(C3CCCN(c4ncnc5[nH]ccc45)C3)c2)C1 (stereo not shown) [compound 225] | > 10 µM | 
4 | O=C(Nc1cccc(C2CCCN(c3ncnc4[nH]ccc34)C2)c1)Nc1cccc2[nH]ncc12 (stereo not shown) [compound 226] | > 10 µM | 
5 | Cc1cc(NC(=O)Nc2cccc(C3CCCN(c4ncnc5[nH]ccc45)C3)c2)n(-c2ccccc2)n1 (stereo not shown) [compound 227] | > 10 µM | 
6 | CN1CCCCC1CNC(=O)Nc1cccc(C2CCCN(c3ncnc4[nH]ccc34)C2)c1 (stereo not shown) [compound 228] | > 10 µM | 
7 | O=C(NCC1CCCNC1)Nc1cccc(C2CCCN(c3ncnc4[nH]ccc34)C2)c1 (stereo not shown) [compound 229] | > 10 µM | 
8 | Cc1cc(NC(=O)Nc2cccc(C3CCCN(c4ncnc5[nH]ccc45)C3)c2)n(CCN(C)C)n1 (stereo not shown) [compound 230] | > 10 µM | 
9 | O=C(NCC1CCNCC1)Nc1cccc(C2CCCN(c3ncnc4[nH]ccc34)C2)c1 (stereo not shown) [compound 231] | > 10 µM | 
10 | O=C(Nc1cccc(C2CCCN(c3ncnc4[nH]ccc34)C2)c1)NC1CCCNC1 (stereo not shown) [compound 232] | > 10 µM | 
11 | O=C(NCC1CCNC1)Nc1cccc(C2CCCN(c3ncnc4[nH]ccc34)C2)c1 (stereo not shown) [compound 233] | > 10 µM | 
12 | O=C(Nc1ccccc1)NC1CN(C2CCCN(c3ncnc4[nH]ccc34)C2)C1 (stereo not shown) [compound 234] | > 10 µM | 
13 | CN1CCC(O)(CNC(=O)Nc2cccc(C3CCCN(c4ncnc5[nH]ccc45)C3)c2)CC1 (stereo not shown) [compound 235] | > 10 µM | 
14 | Cc1cc(NC(=O)Nc2cccc(C3CCCN(c4ncnc5[nH]ccc45)C3)c2)c(C(F)(F)F)o1 (stereo not shown) [compound 236] | > 10 µM | 
15 | O=C(Nc1ccccc1)N[C@H]1CCCN(C2CCCN(c3ncnc4[nH]ccc34)C2)C1 (stereo partly shown) [compound 237] | > 10 µM | 
16 | Cc1cccc(Cl)c1NC(=O)Nc1cccc(C2CCCN(c3ncnc4[nH]ccc34)C2)c1 (stereo not shown) [compound 238] | > 10 µM | 
17 | O=C(Nc1cccc(C2CCCN(c3ncnc4[nH]ccc34)C2)c1)NC1CCNC1 (stereo not shown) [compound 239] | > 10 µM | 
18 | CC(=O)N1CCCC(CNC(=O)Nc2cccc(C3CCCN(c4ncnc5[nH]ccc45)C3)c2)C1 (stereo not shown) [compound 240] | > 10 µM | 
19 | CC(C)NC(=O)Nc1cccc(C2CCCN(c3ncnc4[nH]ccc34)C2)c1 (stereo not shown) [compound 241] | > 10 µM | 
20 | C[C@H](NC(=O)Nc1cccc(C2CCCN(c3ncnc4[nH]ccc34)C2)c1)C1CCCCC1 (stereo partly shown) [compound 242] | > 10 µM | 
21 | O=C(Nc1cccc(C2CCCN(c3ncnc4[nH]ccc34)C2)c1)NC1CCNCC1 (stereo not shown) [compound 243] | > 10 µM | 

Row | Structure (SMILES) | IC50 [1] | IC50
22 | Cc1nn(C)c(C)c1NC(=O)Nc1cccc(C2CCCN(c3ncnc4[nH]ccc34)C2)c1 (stereo not shown) [compound 244] | > 10 µM | 
23 | CN1CCC(CNC(=O)Nc2cccc(C3CCCN(c4ncnc5[nH]ccc45)C3)c2)CC1 (stereo not shown) [compound 245] | > 10 µM | 
24 | CC(=O)N1CCC(CNC(=O)Nc2cccc(C3CCCN(c4ncnc5[nH]ccc45)C3)c2)CC1 (stereo not shown) [compound 246] | > 10 µM | 
25 | O=C(NCC1CCS(=O)(=O)C1)Nc1cccc(C2CCCN(c3ncnc4[nH]ccc34)C2)c1 (stereo not shown) [compound 247] | > 10 µM | 
26 | C[C@H](NC(=O)Nc1cccc(C2CCCN(c3ncnc4[nH]ccc34)C2)c1)c1ccccc1 (stereo partly shown) [compound 248] | > 10 µM | 
27 | Cn1nccc1NC(=O)Nc1cccc(C2CCCN(c3ncnc4[nH]ccc34)C2)c1 (stereo not shown) [compound 249] | > 10 µM | 
28 | CC(C)(C)NC(=O)Nc1cccc(C2CCCN(c3ncnc4[nH]ccc34)C2)c1 (stereo not shown) [compound 250] | > 10 µM | 
29 | O=C(NCC1CCCCN1)Nc1cccc(C2CCCN(c3ncnc4[nH]ccc34)C2)c1 (stereo not shown) [compound 252] | > 10 µM | 
30 | CCOC(=O)CCc1c(N)ncnc1N1CCCC(c2cccc(NC(=O)Nc3ccccc3)c2)C1 (stereo not shown) [compound 253] | > 10 µM | 
31 | Cc1noc(C)c1NC(=O)Nc1cccc(C2CCCN(c3ncnc4[nH]ccc34)C2)c1 (stereo not shown) [compound 254] | > 10 µM | 
32 | O=C(Nc1ccc(C2CCCC2)cc1)Nc1cccc(C2CCCN(c3ncnc4[nH]ccc34)C2)c1 (stereo not shown) [compound 255] | > 10 µM | 
33 | O=C(Nc1ccccc1)N[C@H]1CCN(C2CCCN(c3ncnc4[nH]ccc34)C2)C1 (stereo partly shown) [compound 256] | > 10 µM | 
34 | O=C(NCC1CCC(C(F)(F)F)CC1)Nc1cccc(C2CCCN(c3ncnc4[nH]ccc34)C2)c1 (stereo not shown) [compound 257] | > 10 µM | 
35 | CC1(C)[C@@H]2CCC(CNC(=O)Nc3cccc(C4CCCN(c5ncnc6[nH]ccc56)C4)c3)[C@H]1C2 (stereo partly shown) [compound 258] | > 10 µM | 
36 | O=C(NCCC1CCCCC1)Nc1cccc(C2CCCN(c3ncnc4[nH]ccc34)C2)c1 (stereo not shown) [compound 259] | > 10 µM | 
37 | CC(C)(C#N)c1ccccc1NC(=O)Nc1cccc(C2CCCN(c3ncnc4[nH]ccc34)C2)c1 (stereo not shown) [compound 260] | > 10 µM | 
38 | NC(=O)Cc1ccccc1NC(=O)Nc1cccc(C2CCCN(c3ncnc4[nH]ccc34)C2)c1 (stereo not shown) [compound 261] | > 10 µM | 
39 | CNC(=O)Nc1cccc(C2CCCN(c3ncnc4[nH]ccc34)C2)c1 (stereo not shown) [compound 262] | > 10 µM | 
40 | CC(C)(C)c1ccc(NC(=O)Nc2cccc(C3CCCN(c4ncnc5[nH]ccc45)C3)c2)cc1 (stereo not shown) [compound 263] | > 10 µM | 
41 | CC(C)(C)c1cccc(NC(=O)Nc2cccc(C3CCCN(c4ncnc5[nH]ccc45)C3)c2)c1 (stereo not shown) [compound 264] | > 10 µM | 
42 | COc1ccc(C2CCCN(c3ncnc4[nH]ccc34)C2)cc1NC(=O)Nc1ccccc1 (stereo not shown) [compound 266] | > 10 µM | 

Row | Structure (SMILES) | IC50 [1] | IC50
43 | O=C(Nc1ccccc1)Nc1cc(C2CCCN(c3ncnc4[nH]ccc34)C2)ccc1OC(F)(F)F (stereo not shown) [compound 267] | > 10 µM | 
44 | O=C(Nc1ccccc1)Nc1ccc(C2CCCN(c3ncnc4[nH]ccc34)C2)cc1 (stereo not shown) [compound 268] | > 10 µM | 
45 | N#C/N=C(\Nc1cccc(C2CCCN(c3ncnc4[nH]ccc34)C2)c1)Nc1c(Cl)cccc1Cl (stereo not shown) [compound 269] |  | 0.1 to 0.999 µM
46 | O=C1C(Nc2ccccc2)CCN1[C@@H]1CCCN(c2ncnc3[nH]ccc23)C1 (stereo partly drawn) [compound 270, 1-((R)-1-(7H-pyrrolo[2,3-d]pyrimidin-4-yl)piperidin-3-yl)-3-(phenylamino)pyrrolidin-2-one] |  | 0.1 to 0.999 µM
47 | O=C1C(Nc2ccccc2)CCCN1[C@@H]1CCCN(c2ncnc3[nH]ccc23)C1 (stereo partly drawn) [compound 271, (3′R)-3-(phenylamino)-1′-(7H-pyrrolo[2,3-d]pyrimidin-4-yl)-1,3′-bipiperidin-2-one] |  | 0.1 to 0.999 µM
48 | O=C1[C@@H](Nc2ccccc2)CCN1[C@@H]1CCCN(c2ncnc3[nH]ccc23)C1 [compound 272] |  | 1 to 10 µM
49 | O=C1[C@H](Nc2ccccc2)CCN1[C@@H]1CCCN(c2ncnc3[nH]ccc23)C1 [compound 273] |  | 0.1 to 0.999 µM
50 | O=C1C(Nc2ccccc2)c2ccccc2N1[C@@H]1CCCN(c2ncnc3[nH]ccc23)C1 (stereo partly shown) [compound 274] |  | 1 to 10 µM
51 | O=C1C(Nc2cc(Cl)cc(Cl)c2)CCCN1[C@@H]1CCCN(c2ncnc3[nH]ccc23)C1 (stereo partly drawn) [compound 276, (3′R)-3-(3,5-Dichloro-phenylamino)-1′-(7H-pyrrolo[2,3-d]pyrimidin-4-yl)-1,3′-bipiperidin-2-one] | < 0.1 µM | 
52 | Nc1ncnc(N2CCC[C@@H](N3CCCC(Nc4cc(F)cc(Cl)c4)C3=O)C2)c1F (stereo partly drawn) [compound 277, (3′R)-1′-(6-amino-5-fluoropyrimidin-4-yl)-3-(3-chloro-5-fluorophenylamino)-1,3′-bipiperidin-2-one] | < 0.1 µM | 
53 | Nc1ncnc(N2CCC[C@@H](N3CCCC(Nc4cc(Cl)cc(Cl)c4)C3=O)C2)c1F (stereo partly drawn) [compound 278, (3′R)-1′-(6-amino-5-fluoropyrimidin-4-yl)-3-(3,5-dichlorophenylamino)-1,3′-bipiperidin-2-one] | < 0.1 µM | 
54 | Nc1ncnc(N2C[C@@H](F)C[C@@H](N3CCCC(Nc4cc(F)cc(Cl)c4)C3=O)C2)c1F (stereo partly drawn) [compound 279, (3′R, 5′S)-1′-(6-Amino-5-fluoropyrimidin-4-yl)-3-(3-chloro-5-fluorophenylamino)-5′-fluoro-1,3′-bipiperidin-2-one] | < 0.1 µM | 
55 | Nc1ncnc(N2C[C@@H](F)C[C@@H](N3CCCC(Nc4cc(Cl)cc(Cl)c4)C3=O)C2)c1F (stereo partly drawn) [compound 280, (3′R,5′S)-1′-(6-Amino-5-fluoropyrimidin-4-yl)-3-(3,5-dichlorophenylamino)-5′-fluoro-1,3′-bipiperidin-2-one] | < 0.1 µM | 
56 | C[C@H]1CCN(c2ncnc(N)c2F)C[C@@H]1N1CCCC(Nc2cc(Cl)cc(Cl)c2)C1=O (stereo partly drawn) [compound 281, trans-1′-(6-Amino-5-fluoropyrimidin-4-yl)-3-(3,5-dichlorophenylamino)-4′-methyl-1,3′-bipiperidin-2-one] | < 0.1 µM | 
57 | C[C@H]1CCN(c2ncnc(N)c2F)C[C@@H]1N1CCCC(Nc2cccc(Cl)c2)C1=O (stereo partly drawn) [compound 282, trans-1′-(6-Amino-5-fluoropyrimidin-4-yl)-3-(3-chlorophenylamino)-4′-methyl-1,3′-bipiperidin-2-one] | < 0.1 µM | 
58 | Nc1ncnc(N2C[C@@H](O)C[C@@H](N3CCCC(Nc4cc(Cl)cc(Cl)c4)C3=O)C2)c1F (stereo partly drawn) [compound 283, (3′R,5′S)-1′-(6-Amino-5-fluoropyrimidin-4-yl)-3-(3,5-dichlorophenylamino)-5′-hydroxy-1,3′-bipiperidin-2-one] | < 0.1 µM | 
59 | Nc1ncnc(N2C[C@@H](O)C[C@@H](N3CCCC(Nc4cc(F)cc(Cl)c4)C3=O)C2)c1F (stereo partly drawn) [compound 284, (3′R, 5′S)-1′-(6-Amino-5-fluoropyrimidin-4-yl)-3-(3-chloro-5-fluorophenylamino)-5′-hydroxy-1,3′-bipiperidin-2-one] |  | 0.1 to 0.999 µM
60 | N#Cc1cnc2[nH]ccc2c1N1CCC[C@@H](N2CCCC(Nc3cc(F)cc(Cl)c3)C2=O)C1 (stereo partly drawn) [compound 285, 4-((3′R)-3-(3-Chloro-5-fluorophenylamino)-2-oxo-1,3′-bipiperidin-1′-yl)-1H-pyrrolo[2,3-b]pyridine-5-carbonitrile] | < 0.1 µM | 
61 | CNc1ncnc(N2CCC[C@@H](N3CCCC(Nc4cc(F)cc(Cl)c4)C3=O)C2)c1F (stereo partly drawn) [compound 286, (3′R)-3-(3-Chloro-5-fluorophenylamino)-1′-(5-fluoro-6-(methylamino)pyrimidin-4-yl)-1,3′-bipiperidin-2-one] |  | 1 to 10 µM
